What was measured:
PI3K γ = PI3K γ (Homo sapiens (Human), UniProt P48736); experiment: PI3K γ cell based assay: MCP-1-induced Akt phosphorylation in d-U937 cells; conditions: inhibition of induced Akt phosphorylation, MCP-1 stimulus; read-out: REC50 values in d-U937 cells, MCP-1 stimulus
Description: As a means of assessing the activation of PI3K γ in response to stimuli, the phosphorylation status of the protein, Akt, a downstream product of PI3K γ signalling, was determined following stimulation with MCP-1.
U937 cells were differentiated to macrophage-type cells by incubation with PMA (100 ng/mL) for 48 to 72 hr. Cells were then pre-incubated with either the test compound or vehicle for 2 hr and were then stimulated briefly with MCP-1 (10 nM, 1 min) and the reaction stopped by replacing the media with 4% formaldehyde solution. […] After washing with buffer (PBS containing 0.1% Triton X-100), cells were incubated with an HRP-conjugated secondary antibody (Dako) and the resultant signal was determined colorimetrically (OD: 450 nm with a reference wavelength of 655 nm) using TMB substrate (substrate reagent pack supplied by R&D Systems, Inc.).
This reaction was stopped by addition of 1N H2SO4 solution (100 μL). […] After washing with buffer (PBS containing 0.1% Triton X-100) 1% SDS (100 μL) was added to each well and the plates were shaken lightly for 1 hr prior to measuring the absorbance at 595 nm (Varioskan® Flash, Thermo-Fisher Scientific). The measured OD450-655 readings were corrected for cell number by dividing the OD450-655 by the OD595 readings. The ratio of pAkt signal to total Akt signal was used to quantitate the extent of PI3K γ activation. […]

d-U937 cells = experiment: MTT assay, cell viability; type: cell-based, human
Description: PMA-differentiated U937 cells were pre-incubated with test compound (10 μg/mL) or vehicle for 4 hr in 5% FCS or 10% FCS for 24 hr. The supernatant was replaced with new media (200 μL) and MTT stock solution (10 μL, 5 mg/mL) was added to each well. After 1 hr incubation, the media were removed, 200 μL of DMSO was added to each well and the plates were shaken lightly for 1 hr prior to reading the absorbance at 550 nm. The percentage loss of cell viability was calculated for each well relative to vehicle (0.5% DMSO)-treatment.

[1] = system: cigarette smoke-induced cell accumulation and biomarkers in murine BALF; experiment: Cigarette smoke model; type: in vivo, mouse; conditions: for % inhibition, Macrophages in BAL / % inhibition, Neutrophils in BAL / Cell numbers in BAL, Macrophages / Cell numbers in BAL, Neutrophils: mice, CS, intra-nasal; for Cell numbers in BAL, Macrophages / Cell numbers in BAL, Neutrophils: mean ± SEM; for Inhibition (%) of CXCL1 in BALF / Inhibition (%) of IL-17 in BALF / Inhibition (%) of MCP-1 in BALF / Inhibition (%) of MDA in BALF / Inhibition (%) of Osteopontin in BALF / Inhibition (%) of TNF α in BALF: with respect to tobacco
Description: A/J mice (males, 5 weeks old) were exposed to cigarette smoke (4% cigarette smoke, diluted with compressed air) for 30 min/day for 11 days using a Tobacco Smoke Inhalation Experiment System for small animals (Model SIS-CS; Sibata Scientific Technology, Tokyo, Japan). Test substances were administered once daily for 3 days after the final cigarette smoke exposure (intra-nasal dose comprising 35 μL of solution in 50% DMSO/isotonic saline).
At 12 hr after administration of the last dose, animals were anesthetized, the trachea was cannulated and bronchial alveolar lavage (BAL) was carried out by the instillation into and then withdawal from the lungs, of PBS (100 mL/kg). Total cell numbers in the BALF samples were measured using a haemocytometer under a phase-contrast microscope. The proportions of alveolar macrophages and neutrophils were determined by FACS analysis using anti-mouse MOMA2-FITC (macrophage) or anti-mouse 7/4 (neutrophil).
Cells were suspended in PBS and were incubated with anti-MOMA2-FITC (2 μg/mL, Catalogue no SM065F, Acris Antibodies GmbH, Herford, Germany) or anti-7/4-FITC (2 μg/mL, Catalogue no CL050F, Acris Antibodies GmbH, Herford, Germany) for 30 min at 30° C., and also counterstained with propidium iodide (2 μg/mL) to allow exclusion of necrotic cells. The cells were washed with PBS, and transferred to FACS tubes. Samples was set in a flow cytometer (ALTRA II; Beckman Coulter Japan, Tokyo, Japan), and a single-parameter FL2 [PMT2] (FITC) histogram with log x-axis was plotted to illustrate relative intensity of FITC.
Data files are stored for subsequent analysis using Kaluza analysis software (ver. 1.2) to calculate the proportion of each cell type. The levels of CXCL1(KC), MCP1, TNFα, IL-17 or osteopontin in BALF were determined using Quentikine® mouse KC, MCP1, TNFα, IL-17 or osteopontin ELISA kit (R&D systems, Inc., Minneapolis, Minn., USA). The presence of malondialdehyde was measured using OxiSelect® TBARS Assay Kit (MDA Quantitation; Cell Biolabs Inc, San Diego, Calif., USA).

Chain of PI3K γ (P48736 whole entry): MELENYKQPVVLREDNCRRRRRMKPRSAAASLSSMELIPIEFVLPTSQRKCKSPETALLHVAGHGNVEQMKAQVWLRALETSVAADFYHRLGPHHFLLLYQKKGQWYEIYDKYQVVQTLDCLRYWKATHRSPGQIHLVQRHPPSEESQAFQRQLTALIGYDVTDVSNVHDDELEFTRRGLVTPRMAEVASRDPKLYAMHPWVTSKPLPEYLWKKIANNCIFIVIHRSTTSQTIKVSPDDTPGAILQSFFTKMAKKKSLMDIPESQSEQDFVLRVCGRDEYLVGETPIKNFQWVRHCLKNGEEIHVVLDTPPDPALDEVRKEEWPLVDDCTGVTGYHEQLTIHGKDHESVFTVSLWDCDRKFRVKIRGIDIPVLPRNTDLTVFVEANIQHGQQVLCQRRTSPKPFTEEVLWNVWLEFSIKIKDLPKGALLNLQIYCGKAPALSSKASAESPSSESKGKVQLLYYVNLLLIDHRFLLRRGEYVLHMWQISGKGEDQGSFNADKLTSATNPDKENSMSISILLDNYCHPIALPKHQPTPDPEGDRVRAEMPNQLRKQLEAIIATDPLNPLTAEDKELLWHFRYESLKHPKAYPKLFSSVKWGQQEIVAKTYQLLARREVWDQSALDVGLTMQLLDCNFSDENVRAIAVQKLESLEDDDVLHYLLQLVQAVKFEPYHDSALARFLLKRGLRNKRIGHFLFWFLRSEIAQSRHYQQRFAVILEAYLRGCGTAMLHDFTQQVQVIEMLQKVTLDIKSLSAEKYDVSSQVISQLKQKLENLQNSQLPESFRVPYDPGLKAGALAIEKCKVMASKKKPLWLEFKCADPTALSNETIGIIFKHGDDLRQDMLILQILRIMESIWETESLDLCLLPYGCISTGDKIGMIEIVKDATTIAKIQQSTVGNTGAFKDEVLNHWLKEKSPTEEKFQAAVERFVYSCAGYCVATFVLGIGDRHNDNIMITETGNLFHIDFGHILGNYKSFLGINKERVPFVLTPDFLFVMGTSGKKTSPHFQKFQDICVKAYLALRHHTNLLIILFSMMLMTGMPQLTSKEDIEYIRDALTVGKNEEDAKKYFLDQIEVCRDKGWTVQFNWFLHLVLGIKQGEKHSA

## COCCOCCOCC#Cc1cccc2nc(Cn3nc(-c4cc(O)cc(F)c4)c4c(N)ncnc43)n(Cc3ccccc3C(F)(F)F)c(=O)c12 [Compound (I), 2-((4-Amino-3-(3-fluoro-5-hydroxyphenyl)-1H-pyrazolo[3,4-d]pyrimidin-1-yl)methyl)-5-(3-(2-(2-methoxyethoxy)ethoxy)prop-1-yn-1-yl)-3-(2-(trifluoromethyl)benzyl)quinazolin-4(3H)-one]
PI3K γ
  EC50: 16.5 nM
d-U937 cells
  effects on cell viability (in words): No effects
d-U937 cells; 10 μg/mL, 4 hr
  Cell Viability MTT Assay in d-U937 cells at 4 hr: −ve (−ve indicates a value of <30% inhibition at 10 μg/mL)
d-U937 cells; 10 μg/mL, 24 hr
  Cell Viability MTT Assay in d-U937 cells at 24 hr: −ve (−ve indicates a value of <30% inhibition at 10 μg/mL)
[1]; contemporaneous study
  potency versus compound A on cigarette-smoke induced cell accumulation in murine BALF (in words): more potent inhibitor
[1]; 0.02 mg/mL
  % inhibition, Macrophages in BAL: 32%
  % inhibition, Neutrophils in BAL: 26%
  Cell numbers in BAL, Macrophages: 13.6 ± 0.2 x10^4/mL
  Cell numbers in BAL, Neutrophils: 8.6 ± 0.2 x10^4/mL
[1]; 0.2 mg/mL
  % inhibition, Macrophages in BAL: 63%
  % inhibition, Neutrophils in BAL: 54%
  Cell numbers in BAL, Macrophages: 9.5 ± 0.2 x10^4/mL
  Cell numbers in BAL, Neutrophils: 6.0 ± 0.1 x10^4/mL
[1]; 2 mg/mL
  % inhibition, Macrophages in BAL: 79%
  % inhibition, Neutrophils in BAL: 68%
  Cell numbers in BAL, Macrophages: 7.4 ± 0.3 x10^4/mL
  Cell numbers in BAL, Neutrophils: 4.6 ± 0.1 x10^4/mL
[1]; Compound (I) 0.02 mg/mL
  Inhibition (%) of CXCL1 in BALF: 32%
  Inhibition (%) of IL-17 in BALF: 27%
  Inhibition (%) of MCP-1 in BALF: 28%
  Inhibition (%) of MDA in BALF: 25%
  Inhibition (%) of Osteopontin in BALF: 22%
  Inhibition (%) of TNF α in BALF: 22%
[1]; Compound (I) 0.2 mg/mL
  Inhibition (%) of CXCL1 in BALF: 52%
  Inhibition (%) of IL-17 in BALF: 41%
  Inhibition (%) of MCP-1 in BALF: 45%
  Inhibition (%) of MDA in BALF: 42%
  Inhibition (%) of Osteopontin in BALF: 44%
  Inhibition (%) of TNF α in BALF: 38%
[1]; Compound (I) 2 mg/mL
  Inhibition (%) of CXCL1 in BALF: 71%
  Inhibition (%) of IL-17 in BALF: 60%
  Inhibition (%) of MCP-1 in BALF: 78%
  Inhibition (%) of MDA in BALF: 64%
  Inhibition (%) of Osteopontin in BALF: 63%
  Inhibition (%) of TNF α in BALF: 62%

From patent US9227977B2, “Phosphoinositide 3-kinase inhibitors” (RESPIVERT LTD., priority 2013, dated 2016)
